Measured values: PubChem BioAssay (NCI)
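Exposure lasted 48 hours, with cells grown in 96-well plates and compounds tested at five concentrations. GI50 = concentration required for 50% inhibition of growth. At the TGI there is no net growth.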

How the values were obtained:
Assay in all cases: NCI anticancer screen, dose series, 48 h
A549 NSCLC = tested on: A549 NSCLC
MDA-MB-468 breast = tested on: MDA-MB-468 breast
ACHN renal = tested on: ACHN renal
HCT-15 colon = tested on: HCT-15 colon
MCF7 breast = tested on: MCF7 breast
SK-MEL-5 melanoma = tested on: SK-MEL-5 melanoma
SNB-19 CNS = tested on: SNB-19 CNS
HCC-2998 colon = tested on: HCC-2998 colon
SK-OV-3 ovarian = tested on: SK-OV-3 ovarian
M14 melanoma = tested on: M14 melanoma
SK-MEL-28 melanoma = tested on: SK-MEL-28 melanoma
PC-3 prostate = tested on: PC-3 prostate
HOP-92 NSCLC = tested on: HOP-92 NSCLC
HT29 colon = tested on: HT29 colon
UACC-257 melanoma = tested on: UACC-257 melanoma
CCRF-CEM leukemia = tested on: CCRF-CEM leukemia
SF-268 CNS = tested on: SF-268 CNS
COLO 205 colon = tested on: COLO 205 colon
BT-549 breast = tested on: BT-549 breast
NCI-H23 lung = tested on: NCI-H23 lung
RXF 393 renal = tested on: RXF 393 renal
NCI-H226 lung = tested on: NCI-H226 lung
NCI-H460 lung = tested on: NCI-H460 lung
NCI-H522 lung = tested on: NCI-H522 lung
SF-539 CNS = tested on: SF-539 CNS
U251 CNS = tested on: U251 CNS
OVCAR-5 ovarian = tested on: OVCAR-5 ovarian
MOLT-4 leukemia = tested on: MOLT-4 leukemia
MALME-3M melanoma = tested on: MALME-3M melanoma
SN12C renal = tested on: SN12C renal
HL-60(TB) leukemia = tested on: HL-60(TB) leukemia
OVCAR-3 ovarian = tested on: OVCAR-3 ovarian
SW-620 colon = tested on: SW-620 colon
OVCAR-4 ovarian = tested on: OVCAR-4 ovarian
TK-10 renal = tested on: TK-10 renal
T-47D breast = tested on: T-47D breast
DU-145 prostate = tested on: DU-145 prostate
UACC-62 melanoma = tested on: UACC-62 melanoma
HCT-116 colon = tested on: HCT-116 colon
NCI/ADR-RES ovarian = tested on: NCI/ADR-RES ovarian
A498 renal = tested on: A498 renal
KM12 colon = tested on: KM12 colon
EKVX NSCLC = tested on: EKVX NSCLC
OVCAR-8 ovarian = tested on: OVCAR-8 ovarian
LOX IMVI melanoma = tested on: LOX IMVI melanoma
HS 578T breast = tested on: HS 578T breast
IGROV1 ovarian = tested on: IGROV1 ovarian
MDA-MB-435 = tested on: MDA-MB-435
CAKI-1 renal = tested on: CAKI-1 renal
SR leukemia = tested on: SR leukemia
SF-295 CNS = tested on: SF-295 CNS
K-562 leukemia = tested on: K-562 leukemia
RPMI-8226 leukemia = tested on: RPMI-8226 leukemia
786-0 renal = tested on: 786-0 renal
HOP-62 NSCLC = tested on: HOP-62 NSCLC

Cc1ccc([N+](=O)[O-])c(C(=O)Nc2ccc(-c3ccc4c(c3)NC(=O)/C4=C\c3ccc[nH]3)cc2)c1
GI50 (A549 NSCLC): > 100 µM | TGI (A549 NSCLC): > 100 µM | GI50 (MDA-MB-468 breast): 0.267 µM | TGI (MDA-MB-468 breast): 0.943 µM | GI50 (ACHN renal): 43.6 µM | TGI (ACHN renal): > 100 µM | GI50 (HCT-15 colon): > 100 µM | TGI (HCT-15 colon): > 100 µM | GI50 (MCF7 breast): 0.237 µM | TGI (MCF7 breast): 17.1 µM | GI50 (SK-MEL-5 melanoma): > 100 µM | TGI (SK-MEL-5 melanoma): > 100 µM | GI50 (SNB-19 CNS): 19.9 µM | TGI (SNB-19 CNS): 50.3 µM | GI50 (HCC-2998 colon): 60 µM | TGI (HCC-2998 colon): > 100 µM | GI50 (SK-OV-3 ovarian): 23.6 µM | TGI (SK-OV-3 ovarian): 63.2 µM | GI50 (M14 melanoma): > 100 µM | TGI (M14 melanoma): > 100 µM | GI50 (SK-MEL-28 melanoma): > 100 µM | TGI (SK-MEL-28 melanoma): > 100 µM | GI50 (PC-3 prostate): > 100 µM | TGI (PC-3 prostate): > 100 µM | GI50 (HOP-92 NSCLC): 21.3 µM | TGI (HOP-92 NSCLC): 57.1 µM | GI50 (HT29 colon): > 100 µM | TGI (HT29 colon): > 100 µM | GI50 (UACC-257 melanoma): > 100 µM | TGI (UACC-257 melanoma): > 100 µM | GI50 (CCRF-CEM leukemia): > 100 µM | TGI (CCRF-CEM leukemia): > 100 µM | GI50 (SF-268 CNS): 31.1 µM | TGI (SF-268 CNS): > 100 µM | GI50 (COLO 205 colon): 53.1 µM | TGI (COLO 205 colon): > 100 µM | GI50 (BT-549 breast): 9.01 µM | TGI (BT-549 breast): 61 µM | GI50 (NCI-H23 lung): 1.78 µM | TGI (NCI-H23 lung): 19.2 µM | GI50 (RXF 393 renal): 14.6 µM | TGI (RXF 393 renal): 30.6 µM | GI50 (NCI-H226 lung): 23.4 µM | TGI (NCI-H226 lung): > 100 µM | GI50 (NCI-H460 lung): 3.48 µM | TGI (NCI-H460 lung): > 100 µM | GI50 (NCI-H522 lung): 17 µM | TGI (NCI-H522 lung): 45.6 µM | GI50 (SF-539 CNS): 25.4 µM | TGI (SF-539 CNS): > 100 µM | GI50 (U251 CNS): 16.4 µM | TGI (U251 CNS): 35.5 µM | GI50 (OVCAR-5 ovarian): 23.9 µM | TGI (OVCAR-5 ovarian): > 100 µM | GI50 (MOLT-4 leukemia): 11.2 µM | TGI (MOLT-4 leukemia): > 100 µM | GI50 (MALME-3M melanoma): 36.7 µM | TGI (MALME-3M melanoma): > 100 µM | GI50 (SN12C renal): 55.2 µM | TGI (SN12C renal): > 100 µM | GI50 (HL-60(TB) leukemia): > 100 µM | TGI (HL-60(TB) leukemia): > 100 µM | GI50 (OVCAR-3 ovarian): 27.6 µM | TGI (OVCAR-3 ovarian): 98.8 µM | GI50 (SW-620 colon): > 100 µM | TGI (SW-620 colon): > 100 µM | GI50 (OVCAR-4 ovarian): 24.4 µM | TGI (OVCAR-4 ovarian): > 100 µM | GI50 (TK-10 renal): 22.7 µM | TGI (TK-10 renal): 62 µM | GI50 (T-47D breast): 0.515 µM | TGI (T-47D breast): 20.9 µM | GI50 (DU-145 prostate): 43.8 µM | TGI (DU-145 prostate): > 100 µM | GI50 (UACC-62 melanoma): 90.4 µM | TGI (UACC-62 melanoma): > 100 µM | GI50 (HCT-116 colon): 23.2 µM | TGI (HCT-116 colon): > 100 µM | GI50 (NCI/ADR-RES ovarian): 17 µM | TGI (NCI/ADR-RES ovarian): 38.1 µM | GI50 (A498 renal): 23 µM | TGI (A498 renal): 49.8 µM | GI50 (KM12 colon): > 100 µM | TGI (KM12 colon): > 100 µM | GI50 (EKVX NSCLC): 0.211 µM | TGI (EKVX NSCLC): > 100 µM | GI50 (OVCAR-8 ovarian): 18.7 µM | TGI (OVCAR-8 ovarian): 39.7 µM | GI50 (LOX IMVI melanoma): 45.9 µM | TGI (LOX IMVI melanoma): > 100 µM | GI50 (HS 578T breast): 26.3 µM | TGI (HS 578T breast): > 100 µM | GI50 (IGROV1 ovarian): 17.8 µM | TGI (IGROV1 ovarian): 55 µM | GI50 (MDA-MB-435): > 100 µM | TGI (MDA-MB-435): > 100 µM | GI50 (CAKI-1 renal): > 100 µM | TGI (CAKI-1 renal): > 100 µM | GI50 (SR leukemia): 10.4 µM | TGI (SR leukemia): > 100 µM | GI50 (SF-295 CNS): 29.2 µM | TGI (SF-295 CNS): > 100 µM | GI50 (K-562 leukemia): > 100 µM | TGI (K-562 leukemia): > 100 µM | GI50 (RPMI-8226 leukemia): > 100 µM | TGI (RPMI-8226 leukemia): > 100 µM | GI50 (786-0 renal): 24.4 µM | TGI (786-0 renal): 68.8 µM | GI50 (HOP-62 NSCLC): 22.2 µM | TGI (HOP-62 NSCLC): 54 µM
